Biological target: T1, human brain-derived dopamine D4 receptor (Homo sapiens, UniProt P21917)
T1 construct: expressed in transfected cells; host or cells: CHO (CHO-K1) or HEK293 cells
T1 sequence (P21917 1-419): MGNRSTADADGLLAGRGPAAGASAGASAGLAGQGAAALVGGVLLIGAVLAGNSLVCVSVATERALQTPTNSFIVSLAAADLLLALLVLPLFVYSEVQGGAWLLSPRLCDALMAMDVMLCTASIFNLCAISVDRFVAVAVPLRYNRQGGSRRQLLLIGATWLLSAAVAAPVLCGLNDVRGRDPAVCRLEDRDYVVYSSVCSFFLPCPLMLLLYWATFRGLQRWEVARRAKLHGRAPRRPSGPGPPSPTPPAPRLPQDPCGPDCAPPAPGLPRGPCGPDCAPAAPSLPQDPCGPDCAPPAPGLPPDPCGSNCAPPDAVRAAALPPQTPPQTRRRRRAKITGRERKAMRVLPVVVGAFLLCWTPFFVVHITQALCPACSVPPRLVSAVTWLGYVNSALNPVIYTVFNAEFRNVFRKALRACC
Test: Agonistic activity in G protein dependent pathway of dopamine D4 receptor (aequorin intracellular calcium luminescence, FDSS)
Type: cell-based
Details: for EC50: concentration required to achieve a 50% response of Emax, CHO-K1 or HEK293 cells transfected with D4 receptor; for Emax: read-out: Maximal activity on D4 receptor (%)
Excerpt: The G protein dependent pathway is a pathway for transmitting signals in cells via a second messenger by stimulating a G protein through the binding of guanosine triphosphate (GTP) to the G protein. When GPCRs are activated by the binding of a ligand, a G protein binds to the GPCRs, and thereby GTP binds to a Gα subunit that is one of G protein subunits and a Gγβ subunit is dissociated. The activated Gα subunit regulates intracellular cAMP levels by the activation or inhibition of an adenylate cyclase, and regulates intracellular calcium levels by the activation of phospholipase C to transmit signals in cells.
The agonistic activities of the present compounds in the G protein dependent pathway were evaluated on the basis of intracellular calcium levels as follows. CHO-K1 or HEK293 cell lines transfected with D4 receptor genes were seeded in a 384-well plate, and incubated in a CO2 incubator at 37° C. for 24 hours, and then a solution of the present compound in DMSO was added into cells preloaded with coelenterazine to measure the change in luminescent signals with a FDSS (Hamamatsu Photonics K.K.). […] The agonistic activity of the present compound was calculated according to the measured luminescent signals, as the maximal activity (Emax) of the present compound. EC50 value was calculated as the concentration of the present compound required to achieve a 50% response of Emax.

## Cc1cccnc1-c1nn2c(c1C)CN(Cc1ccc(C(F)(F)F)cc1)CC2 [Example 71]
  EC50: 88 nM
  Emax: 53%

## Cc1ccc(CN2CCn3nc(-c4ncccc4C)c(C)c3C2)cc1 [Example 72]
  EC50: 33 nM
  Emax: 65%

## Cc1cccnc1-c1nn2c(c1C)CN(Cc1ccccc1)CC2 [Example 73]
  EC50: 30 nM
  Emax: 58%

## Cc1c(-c2ccccn2)nn2c1CN(Cc1ccc(C(F)(F)F)cc1)CC2 [Example 74]
  EC50: 73 nM
  Emax: 65%

## Cc1c(-c2ccccn2)nn2c1CN(Cc1ccc(C#N)cc1)CC2 [Example 75]
  EC50: 37 nM
  Emax: 61%

## Cc1ccc(CN2CCn3nc(-c4ccccn4)c(C)c3C2)cc1 [Example 76]
  EC50: 44 nM
  Emax: 59%

## Cc1cccnc1-c1cc2n(n1)CCN(Cc1ccc3c(c1)N(C)C(=O)CS3)C2 [Example 77]
  EC50: 58 nM
  Emax: 62%

## Fc1c(-c2ccccn2)nn2c1CN(Cc1ccccc1)CC2 [Example 78]
  EC50: 11 nM
  Emax: 51%

## Fc1cccnc1-c1cc2n(n1)CCN(Cc1ccccc1)C2 [Example 79]
  EC50: 3.4 nM
  Emax: 83%

## Cc1cccnc1-c1cc2n(n1)CCN(Cc1ccc(C(F)F)cc1)C2 [Example 80]
  EC50: 18 nM
  Emax: 70%

## Cc1c(-c2ccccn2)nn2c1CN(Cc1ccccc1)CC2 [Example 81]
  EC50: 0.7 nM
  Emax: 89%

## Cc1ccc(CN2CCn3nc(-c4ncccc4F)c(C)c3C2)cc1 [Example 82]
  EC50: 46 nM
  Emax: 91%

## Cc1c(-c2ncccc2F)nn2c1CN(Cc1ccc(C(F)(F)F)cc1)CC2 [Example 83]
  EC50: 84 nM
  Emax: 72%

## Cc1cccnc1-c1cc2n(n1)CCN(Cc1cnc(C(F)(F)F)nc1N)C2 [Example 84, 5-{[2-(3-Methylpyridin-2-yl)-6,7-dihydropyrazolo[1,5-a]pyrazin-5(4H)-yl]methyl}-2-(trifluoromethyl)pyrimidine-4-amine]
  EC50: 118 nM
  Emax: 68%

## Cc1cccnc1-c1cc2n(n1)CCN(Cc1nc(C)n3ccccc13)C2 [Example 85]
  EC50: 78 nM
  Emax: 78%

## Cc1cccnc1-c1cc2n(n1)CCN(Cc1ccc(C(F)(F)F)c(C#N)c1)C2 [Example 86]
  EC50: 52 nM
  Emax: 85%

## Cc1cccnc1-c1cc2n(n1)CCN(Cc1cn3c(n1)CCCC3)C2 [Example 87]
  EC50: 62 nM
  Emax: 47%

## Cc1cccnc1-c1cc2n(n1)CCN(Cc1cnn3c1CCCC3)C2 [Example 88]
  EC50: 93 nM
  Emax: 54%

## Cc1cccnc1-c1cc2n(n1)CCN(Cc1cnn3ccccc13)C2 [Example 89]
  EC50: 47 nM
  Emax: 39%

## Cc1cccnc1-c1cc2n(n1)CCN(Cc1cc3ccccn3n1)C2 [Example 90]
  EC50: 29 nM
  Emax: 55%

## Cc1cccnc1-c1cc2n(n1)CCN(Cc1cc3n(n1)CCCC3)C2 [Example 91]
  EC50: 49 nM
  Emax: 44%

## Cc1c(-c2ccccn2)nn2c1CN(Cc1ccc(C(F)(F)F)nc1N)CC2 [Example 92]
  EC50: 60 nM
  Emax: 64%

## Cc1ccnc(CN2CCn3nc(-c4ccccn4)c(C)c3C2)c1 [Example 93]
  EC50: 23 nM
  Emax: 56%

## Cc1c(-c2ccccn2)nn2c1CN(Cc1cn3c(n1)CCCC3)CC2 [Example 94]
  EC50: 42 nM
  Emax: 49%

## Cc1c(-c2ccccn2)nn2c1CN(Cc1ccc(C(F)(F)F)nc1)CC2 [Example 95]
  EC50: 51 nM
  Emax: 56%

## Cc1cccnc1-c1cc2n(n1)CCN(Cc1ncn3ccccc13)C2 [Example 96]
  EC50: 37 nM
  Emax: 57%

## Cc1cccnc1-c1cc2n(n1)CCN(Cc1ccc(Cl)cn1)C2 [Example 97]
  EC50: 49 nM
  Emax: 85%

## Cc1ccc(CN2CCn3nc(-c4ccccn4)cc3C2)nc1N [Example 98]
  EC50: 20 nM
  Emax: 54%

## Cc1ccc(CN2CCn3nc(-c4ncccc4C)cc3C2)cc1C#N [Example 99]
  EC50: 1.1 nM
  Emax: 77%

## Cc1cccnc1-c1cc2n(n1)CCN(Cc1n[nH]c3cc(F)ccc13)C2 [Example 100]
  EC50: 20 nM
  Emax: 79%

## Cc1ccc2c(CN3CCn4nc(-c5ncccc5C)cc4C3)n[nH]c2c1 [Example 101]
  EC50: 78 nM
  Emax: 67%

## Fc1cccc2[nH]nc(CN3CCn4nc(-c5ccccn5)cc4C3)c12 [Example 102]
  EC50: 116 nM
  Emax: 48%

## Cc1cnc(N)c(CN2CCn3nc(-c4ncccc4C)cc3C2)c1 [Example 103]
  EC50: 127 nM
  Emax: 53%

## Cc1cccnc1-c1cc2n(n1)CCN(Cc1n[nH]c3c(C)cccc13)C2 [Example 104]
  EC50: 18 nM
  Emax: 67%

## Cc1cccnc1-c1cc2n(n1)CCN(Cc1ccc(C(F)(F)F)nc1N)C2 [Example 105]
  EC50: 69 nM
  Emax: 79%

## Cc1ccc(CN2CCn3nc(-c4ncccc4C)c(Cl)c3C2)nc1 [Example 106, 3-Chloro-2-(3-methylpyridin-2-yl)-5-[(5-methylpyridin-2-yl)methyl]-4,5,6,7-tetrahydropyrazolo[1,5-a]pyrazine]
  EC50: 66 nM
  Emax: 94%

## Cc1ccc(CN2CCn3nc(-c4ncccc4C)cc3C2)nc1 [Example 107]
  EC50: 13 nM
  Emax: 61%

## Cc1c(-c2ccccn2)nn2c1CN(Cc1ccc(C(F)(F)F)cn1)CC2 [Example 108]
  EC50: 1 nM
  Emax: 66%

## Cc1ccc(CN2CCn3nc(-c4ncccc4F)cc3C2)nc1 [Example 109]
  EC50: 36 nM
  Emax: 68%

## Cc1ccc(CN2CCn3nc(-c4ccccn4)c(C)c3C2)nc1 [Example 110]
  EC50: 18 nM
  Emax: 99%

## Cc1ccncc1CN1CCn2nc(-c3ncccc3C)cc2C1 [Example 111]
  EC50: 159 nM
  Emax: 22%

## Cc1cccnc1-c1cc2n(n1)CCN(Cc1ccc3c(n1)CCCC3)C2 [Example 112]
  EC50: 41 nM
  Emax: 66%

## Cc1ccc(CN2CCn3nc(-c4ncccc4C)c(C)c3C2)nc1 [Example 114]
  EC50: 64 nM
  Emax: 93%

## Cc1cccc(CN2CCn3nc(-c4ncccc4C)c(C)c3C2)n1 [Example 115]
  EC50: 57 nM
  Emax: 105%

## Cc1cccnc1-c1nn2c(c1C)CN(Cc1ccc(C(F)(F)F)nc1)CC2 [Example 117]
  EC50: 241 nM
  Emax: 51%

## Cc1cccnc1-c1nn2c(c1C)CN(Cc1ccc(C(F)(F)F)cn1)CC2 [Example 118]
  EC50: 106 nM
  Emax: 59%

## Cc1cnc(CN2CCn3nc(-c4ncccc4C)c(C)c3C2)cn1 [Example 119]
  EC50: 145 nM
  Emax: 71%

## Cc1ccc(CN2CCn3nc(-c4ncccc4F)c(C)c3C2)nc1 [Example 120]
  EC50: 23 nM
  Emax: 98%

## Cc1ccc(CN2CCn3nc(-c4ncccc4F)c(C)c3C2)cn1 [Example 121]
  EC50: 46 nM
  Emax: 84%

## Cc1cccnc1-c1cc2n(n1)CCN(Cc1ccc(CF)nc1)C2 [Example 122]
  EC50: 50 nM
  Emax: 47%

## Cc1cccnc1-c1cc2n(n1)CCN(Cc1ccc(CF)cn1)C2 [Example 123]
  EC50: 32 nM
  Emax: 65%

## Cc1c(-c2ncccc2F)nn2c1CN(Cc1ccc3c(n1)CCCC3)CC2 [Example 124]
  EC50: 47 nM
  Emax: 76%

## Cc1c(-c2ncccc2F)nn2c1CN(Cc1ccc3c(n1)CCC3)CC2 [Example 125]
  EC50: 13 nM
  Emax: 98%

## Cc1cccc(CN2CCn3nc(-c4ncccc4F)c(C)c3C2)n1 [Example 126]
  EC50: 11 nM
  Emax: 91%

## Cc1c(-c2ncccc2F)nn2c1CN(Cc1ccc(C(F)(F)F)nc1)CC2 [Example 127]
  EC50: 56 nM
  Emax: 89%

## Fc1cccnc1-c1cc2n(n1)CCN(Cc1ccc3c(n1)CCCC3)C2 [Example 130]
  EC50: 20 nM
  Emax: 71%

## Cc1ccc(CN2CCn3nc(-c4ncccc4C)cc3C2)nc1C [Example 131]
  EC50: 22 nM
  Emax: 66%

## Cc1cccnc1-c1cc2n(n1)CCN(Cc1ccc(C(F)F)cn1)C2 [Example 133]
  EC50: 5 nM
  Emax: 47%

## Cc1c(-c2ccccn2)nn2c1CN(Cc1ccc(CF)nc1)CC2 [Example 134]
  EC50: 42 nM
  Emax: 62%

## Cc1cccnc1-c1cc2n(n1)CCN(Cc1ccc(F)c(C)n1)C2 [Example 135]
  EC50: 49 nM
  Emax: 54%

## Cc1cccnc1-c1cc2n(n1)CCN(Cc1cc3c(cn1)OCCC3)C2 [Example 136]
  EC50: 63 nM
  Emax: 52%

## Cc1cccnc1-c1cc2n(n1)CCN(Cc1cccc(CF)n1)C2 [Example 137]
  EC50: 10 nM
  Emax: 82%

— patent US20160318933A1, “FUSED PYRAZOLE DERIVATIVE” (SUMITOMO DAINIPPON PHARMA CO., LTD., priority 2013, published 2016)
